The source of these data is a polymer gas permeability compilation.

`*/C(C)=C(/*)[Si](C)(C)c1ccccc1` (repeat unit) showed a CH4 permeability of 1.7 Barrer, a CO2 permeability of 37.6 Barrer, an H2 permeability of 14 Barrer and an N2 permeability of 1.2 Barrer. This molecule also had an O2 permeability of 4.4 Barrer.

Turning to `*/C(C)=C(/*)c1ccc([Si](C)(C)C)cc1` (repeat unit), the CH4 permeability amounted to 200 Barrer, the CO2 permeability stood at 950 Barrer, the H2 permeability was determined as 510 Barrer and the N2 permeability came to 100 Barrer. The O2 permeability amounted to 240 Barrer.

Turning to `*C(=C(*)c1ccc2c(ccc3ccccc32)c1)c1ccc([Si](C)(C)C)cc1` (repeat unit), the CH4 permeability amounted to 500 Barrer, the CO2 permeability worked out at 2100 Barrer, the H2 permeability is 900 Barrer and the N2 permeability was determined as 190 Barrer. This molecule came in with an O2 permeability of 460 Barrer.

Molecule `*C(=C(*)c1ccc2c(ccc3ccccc32)c1)c1ccccc1` (repeat unit) had a CH4 permeability of 1450 Barrer, a CO2 permeability of 5300 Barrer, an H2 permeability of 2500 Barrer and an N2 permeability of 650 Barrer. The same molecule registered an O2 permeability of 1300 Barrer.

As for `*C(=C(*)c1cccc(O)c1)c1ccc(C(C)(C)C)cc1` (repeat unit), the CH4 permeability is 490 Barrer, the CO2 permeability came to 3000 Barrer, the H2 permeability turned out to be 1700 Barrer and the N2 permeability amounted to 210 Barrer. The molecule further gave an O2 permeability of 580 Barrer.

`*C(=C(*)c1ccccc1)c1ccccc1` (repeat unit) came in with a CH4 permeability of 3700 Barrer, a CO2 permeability of 6600 Barrer, an N2 permeability of 2720 Barrer and an O2 permeability of 3600 Barrer.

In turn, `*C(=O)c1ccc(C2(c3ccc(C(=O)c4ccc(Oc5ccc(C(=O)c6ccc(Oc7ccc(*)cc7)cc6)cc5)cc4)cc3)OC(=O)c3ccccc32)cc1` (repeat unit) came in with a CH4 permeability of 0.1 Barrer, a CO2 permeability of 3.1 Barrer, an H2 permeability of 9.2 Barrer and an N2 permeability of 0.0986 Barrer. Further, the O2 permeability is 0.68 Barrer.

For `*C(=O)c1ccc(C2(c3ccc(C(=O)c4ccc(Oc5ccc(C(=O)c6cccc(C(=O)c7ccc(Oc8ccc(*)cc8)cc7)c6)cc5)cc4)cc3)OC(=O)c3ccccc32)cc1` (repeat unit), the CH4 permeability was determined as 0.0276 Barrer, the CO2 permeability was found to be 0.91 Barrer, the H2 permeability was 5.3 Barrer and the N2 permeability amounted to 0.031 Barrer. The same molecule returned an O2 permeability of 0.27 Barrer.

In the case of `*C(=O)c1ccc([Si](C)(C)c2ccc(C(*)=O)cc2)cc1` (repeat unit), the CH4 permeability was 1.39 Barrer, the CO2 permeability is 22.2 Barrer, the H2 permeability was 27.1 Barrer and the N2 permeability turned out to be 1.37 Barrer. The molecule further gave an O2 permeability of 5.54 Barrer.

Take `*C(=O)n1c(*)nc2cc3nc4c5ccc(*)c6c(*)ccc(c(=O)n4c3cc21)c65` (repeat unit): the CH4 permeability was determined as 0.0017 Barrer, the CO2 permeability is 0.12 Barrer, the N2 permeability came to 0.00259 Barrer and the O2 permeability was 0.021 Barrer.

`*c1ccc2c(-c3c(O)ccc4cc(N5C(=O)c6ccc(Oc7ccc8c(c7)C(=O)N(*)C8=O)cc6C5=O)ccc34)c(O)ccc2c1` (repeat unit) registered a CH4 permeability of 0.03 Barrer, a CO2 permeability of 1.87 Barrer, an H2 permeability of 2.72 Barrer and an N2 permeability of 0.05 Barrer. The same molecule registered an O2 permeability of 0.35 Barrer.

In turn, `*c1ccc2c(-c3c(OC(C)=O)ccc4cc(N5C(=O)c6ccc(C(=O)c7ccc8c(c7)C(=O)N(*)C8=O)cc6C5=O)ccc34)c(OC(C)=O)ccc2c1` (repeat unit) came in with a CH4 permeability of 0.08 Barrer, a CO2 permeability of 3.55 Barrer, an H2 permeability of 4.67 Barrer and an N2 permeability of 0.15 Barrer. This molecule also came in with an O2 permeability of 0.92 Barrer.

`*c1ccc2c(-c3c(OC(C)=O)ccc4cc(N5C(=O)c6ccc(Oc7ccc8c(c7)C(=O)N(*)C8=O)cc6C5=O)ccc34)c(OC(C)=O)ccc2c1` (repeat unit) registered a CH4 permeability of 0.05 Barrer, a CO2 permeability of 2.38 Barrer, an H2 permeability of 3.18 Barrer and an N2 permeability of 0.1 Barrer. Further, the O2 permeability was 0.61 Barrer.

Consider `*c1ccc2c(c1)-c1nc3ccc(-c4ccc5c(c4)nc4n5C(=O)c5cc(C(c6ccc(-c7nc8cc(C(c9ccc%10oc(-c%11ccc(C(*)(C(F)(F)F)C(F)(F)F)cc%11)nc%10c9)(C(F)(F)F)C(F)(F)F)ccc8o7)cc6)(C(F)(F)F)C(F)(F)F)ccc5-4)cc3n1C2=O` (repeat unit), for which the CH4 permeability came out at 46 Barrer, the CO2 permeability came out at 1800 Barrer, the H2 permeability was 1990 Barrer and the N2 permeability worked out at 85 Barrer. For the same molecule, the O2 permeability is 421 Barrer.

As to `*c1ccc2c(c1)C1c3ccccc3C2c2cc(N3C(=O)c4ccc(C(c5ccc6c(c5)C(=O)N(*)C6=O)(C(F)(F)F)C(F)(F)F)cc4C3=O)ccc21` (repeat unit), the CH4 permeability came out at 7.2 Barrer, the CO2 permeability was determined as 202 Barrer, the H2 permeability amounted to 329 Barrer and the N2 permeability was found to be 10.7 Barrer. This molecule also showed an O2 permeability of 43.9 Barrer.

The molecule `*c1ccc2c(c1)Oc1ccc(C3(c4ccc5c(c4)Oc4ccc(*)cc4O5)c4ccccc4-c4ccccc43)cc1O2` (repeat unit) returned a CH4 permeability of 0.56 Barrer, a CO2 permeability of 26.6 Barrer, an N2 permeability of 1.04 Barrer and an O2 permeability of 5.68 Barrer.

`*c1ccc2c(c1C)N1Cc3ccc(N4C(=O)c5ccc(C(c6ccc7c(c6)C(=O)N(*)C7=O)(C(F)(F)F)C(F)(F)F)cc5C4=O)c(C)c3N(C2)C1` (repeat unit) gave a CH4 permeability of 6.3 Barrer, a CO2 permeability of 190 Barrer, an H2 permeability of 322 Barrer and an N2 permeability of 10 Barrer. This molecule also displayed an O2 permeability of 50 Barrer.

`*c1cccc(-c2cc(C)c(-c3cccc(*)c3C)cc2C)c1C` (repeat unit) displayed a CH4 permeability of 5.6 Barrer, a CO2 permeability of 190 Barrer, an H2 permeability of 210 Barrer and an N2 permeability of 7.3 Barrer. Besides, the O2 permeability stood at 32 Barrer.

In turn, `*c1cccc(-c2nc3cc(-c4ccc5[nH]c(*)nc5c4)ccc3[nH]2)c1` (repeat unit) registered a CH4 permeability of 0.0018 Barrer, a CO2 permeability of 0.16 Barrer, an H2 permeability of 0.615 Barrer and an N2 permeability of 0.0048 Barrer. This molecule showed an O2 permeability of 0.015 Barrer.

Turning to `*c1cccc(-c2nnc(*)n2-c2ccccc2)c1` (repeat unit), the CH4 permeability was 0.0491 Barrer, the CO2 permeability came to 2.7 Barrer, the N2 permeability was 0.09 Barrer and the O2 permeability stood at 0.52 Barrer.

`*c1cccc(C(c2cccc(-c3nnc(*)n3-c3ccc(O)cc3)c2)(C(F)(F)F)C(F)(F)F)c1` (repeat unit) yielded a CH4 permeability of 1.41 Barrer, a CO2 permeability of 66.3 Barrer, an N2 permeability of 2.37 Barrer and an O2 permeability of 12.5 Barrer.

As to `*c1cccc(C(c2cccc(-c3nnc(*)n3-c3ccccc3)c2)(C(F)(F)F)C(F)(F)F)c1` (repeat unit), the CH4 permeability turned out to be 4.66 Barrer, the CO2 permeability came out at 132 Barrer, the N2 permeability came to 5.93 Barrer and the O2 permeability was 26.1 Barrer.

`*c1cccc(C(c2cccc(N3C(=O)c4ccc(C(c5ccc6c(c5)C(=O)N(*)C6=O)(C(F)(F)F)C(F)(F)F)cc4C3=O)c2)(C(F)(F)F)C(F)(F)F)c1` (repeat unit) displayed a CH4 permeability of 0.08 Barrer, a CO2 permeability of 5.1 Barrer, an N2 permeability of 0.261 Barrer and an O2 permeability of 1.8 Barrer.

`*c1cccc(N2C(=O)c3ccc(C(=O)c4ccc5c(c4)C(=O)N(*)C5=O)cc3C2=O)c1` (repeat unit) displayed a CH4 permeability of 0.0086 Barrer, a CO2 permeability of 0.428 Barrer, an N2 permeability of 0.016 Barrer and an O2 permeability of 0.112 Barrer.

Regarding `*c1cccc(N2C(=O)c3ccc(C(c4ccc5c(c4)C(=O)N(*)C5=O)(C(F)(F)F)C(F)(F)F)cc3C2=O)c1` (repeat unit), the CH4 permeability is 0.163 Barrer, the CO2 permeability is 9.7 Barrer, the H2 permeability is 35.5 Barrer and the N2 permeability turned out to be 0.419 Barrer. Moreover, the O2 permeability worked out at 2.79 Barrer.

`*c1cccc(N2C(=O)c3ccc(C(c4ccc5c(c4)C(=O)N(*)C5=O)(C(F)(F)F)C(F)(F)F)cc3C2=O)c1C` (repeat unit) registered a CH4 permeability of 0.88 Barrer, a CO2 permeability of 36.2 Barrer, an H2 permeability of 102 Barrer and an N2 permeability of 1.89 Barrer. For the same molecule, the O2 permeability amounted to 10.8 Barrer.

`*c1cccc(Oc2ccc(C(c3ccc(Oc4cccc(-n5c(=O)c6cc7c(=O)n(*)c(=O)c7cc6c5=O)c4)cc3)(C(F)(F)F)C(F)(F)F)cc2)c1` (repeat unit) showed a CH4 permeability of 0.17 Barrer, a CO2 permeability of 6.12 Barrer, an H2 permeability of 19 Barrer and an N2 permeability of 0.292 Barrer. The O2 permeability was determined as 1.4 Barrer.

`*c1cccc(Oc2ccc(C(c3ccc(Oc4cccc(N5C(=O)c6ccc(C(c7ccc8c(c7)C(=O)N(*)C8=O)(C(F)(F)F)C(F)(F)F)cc6C5=O)c4)cc3)(C(F)(F)F)C(F)(F)F)cc2)c1` (repeat unit) came in with a CH4 permeability of 0.136 Barrer, a CO2 permeability of 6 Barrer, an H2 permeability of 21 Barrer and an N2 permeability of 0.241 Barrer. For the same molecule, the O2 permeability was 1.35 Barrer.

Regarding `*c1cccc2c(-n3c(=O)c4cc5oc6cc7c(cc6oc5cc4c3=O)C3(CC(C)(C)c4cc5oc6cc8c(=O)n(*)c(=O)c8cc6oc5cc43)CC7(C)C)cccc12` (repeat unit), the CH4 permeability worked out at 27 Barrer, the CO2 permeability was 510 Barrer, the H2 permeability was found to be 350 Barrer and the N2 permeability came to 19 Barrer. The O2 permeability came to 77 Barrer.

As to `*c1ccccc1Oc1ccc2ccccc2c1-c1c(Oc2ccccc2N2C(=O)c3ccc(C(c4ccc5c(c4)C(=O)N(*)C5=O)(C(F)(F)F)C(F)(F)F)cc3C2=O)ccc2ccccc12` (repeat unit), the CH4 permeability came to 0.07 Barrer, the CO2 permeability was determined as 4.88 Barrer, the H2 permeability came out at 6.86 Barrer and the N2 permeability turned out to be 0.13 Barrer. The O2 permeability was 0.99 Barrer.
